Assay results: publication PMC6855808, “Direct binding of phosphatidylglycerol at specific sites modulates desensitization of a ligand-gated ion channel” (eLife, 2019)
Several values for one entry are separate records, joined by “and”; a condition that tells them apart may be missing. Equal values may be shown once.

Tests used:
ELIC WT [1] = test: Native MS phospholipid binding to delipidated ELIC in C10E5; parameters: species or system Erwinia chrysanthemi
Description: (§1) Native MS analysis was similar to previous descriptions for other membrane proteins ([Gault et al., 2016]). For analysis of ELIC in DDM, 30 μl of purified protein in 0.02% DDM at ~1 mg/ml was buffer exchanged into 200 mM ammonium acetate pH 7.5% and 0.02% DDM using Biospin six gel filtration spin columns (Bio-Rad, Hercules, CA). 2 μl of buffer exchanged ELIC was loaded into a borosilicate capillary emitter (Thermo Scientific, Waltham, MA), and analyzed by static nanospray on a Thermo QExactive EMR mass spectrometer. The following parameters were used to resolve the ELIC pentamer and minimize dissociation into tetramer and monomer: capillary voltage of 1.2 kV, capillary temperature of 200°C, ion transfer optics set with the injection flatapole, inter-flatapole lens, bent flatapole, transfer multiple as 8, 7, 6, 4 V, respectively, resolution 8,750, AGC target 3 × 10^6, trap pressure set to maximum, CID 200 V, and CE 100 V. For analysis of ELIC in C10E5, ELIC delipidated by injecting 300 μg onto a Sephadex 200 10/300 column (GE Healthcare) at 0.5 ml/min pre-equilibrated with Buffer A, 10% glycerol, and 0.06% C10E5 (Anatrace). 30 μl aliquots were then buffer exchanged to 100 mM ammonium acetate pH 7.5, 0.06% C10E5 using Biospin six columns, and diluted to 0.2 mg/ml. MS measurements on the QExactive EMR were performed with the parameters listed above except: capillary temperature 100°C, CID 75 V and CE 200 V. For lipid binding measurements, stocks of POPG lipid were prepared at 2× the concentration of POPG being tested in 100 mM ammonium acetate pH 7.5% and 0.06% C10E5. Lipid stocks were then mixed with 0.4 mg/ml ELIC in a 1:1 vol ratio for a final concentration of 1 μM ELIC, and samples were analyzed after >5 min incubation.
(§2) MS spectra were deconvoluted using UniDec ([Marty et al., 2015]); deconvolution of spectra with bound lipid was restricted to the 26+ to 22+ charge states (Figure 1—figure supplement 3). Peak heights of apo and lipid-bound species were extracted from UniDec, and analyzed by two approaches. The average number of bound lipids was determined by the following relationship:(1) Averagenumberboundlipid=∑n=0kn\cdot In/∑n=0kIn where n is the number of bound lipids and In is the deconvoluted peak height of ELIC with n bound lipids. Peak heights of apo and lipid-bound species were also plotted as mole fraction versus the number of bound lipids (Figure 1—figure supplement 4).
(§3) Then, the probability (B) that q sites are occupied out of N total sites is given by the binomial probability function:(3) Bq=N!/q!N-q!p^N-q(1-p)^q
(§4) B(q) was used to determine the mole fraction of each lipid-bound species at a given [A], which was used to fit the native MS data in Excel across all [A] by setting K constant and varying N or vice versa.

ELIC R117Q/R299Q = molecular target: T1, ELIC R117Q/R299Q (Dickeya chrysanthemi, UniProt P0C7B7, R117Q/R298Q); test: Native MS POPG binding, mutant; parameters: species or system Erwinia chrysanthemi; details: binomial fit, N varied; 12 μM POPG
T1 construct: MBP (N, cleaved yes); made in house; host or cells: OverExpress C43 (DE3) E. coli
T1 sequence (P0C7B7 whole entry R117Q/R298Q): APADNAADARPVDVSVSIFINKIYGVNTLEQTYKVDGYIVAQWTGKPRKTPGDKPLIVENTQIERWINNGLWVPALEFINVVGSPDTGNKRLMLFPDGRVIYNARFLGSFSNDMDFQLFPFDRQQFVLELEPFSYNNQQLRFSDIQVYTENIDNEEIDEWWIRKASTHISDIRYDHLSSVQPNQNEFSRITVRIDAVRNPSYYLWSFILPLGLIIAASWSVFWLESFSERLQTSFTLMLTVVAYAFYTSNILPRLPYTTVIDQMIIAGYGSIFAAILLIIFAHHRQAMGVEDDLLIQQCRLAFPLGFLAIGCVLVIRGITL
Description: as §1, §2, §3, §4

ELIC R123Q/R299Q = molecular target: T2, ELIC R123Q/R299Q (Dickeya chrysanthemi, UniProt P0C7B7, R123Q/R298Q); test: Native MS POPG binding, mutant; parameters: species or system Erwinia chrysanthemi; details: binomial fit, N varied; 12 μM POPG
T2 construct: MBP (N, cleaved yes); made in house; host or cells: OverExpress C43 (DE3) E. coli
T2 sequence (P0C7B7 whole entry R123Q/R298Q): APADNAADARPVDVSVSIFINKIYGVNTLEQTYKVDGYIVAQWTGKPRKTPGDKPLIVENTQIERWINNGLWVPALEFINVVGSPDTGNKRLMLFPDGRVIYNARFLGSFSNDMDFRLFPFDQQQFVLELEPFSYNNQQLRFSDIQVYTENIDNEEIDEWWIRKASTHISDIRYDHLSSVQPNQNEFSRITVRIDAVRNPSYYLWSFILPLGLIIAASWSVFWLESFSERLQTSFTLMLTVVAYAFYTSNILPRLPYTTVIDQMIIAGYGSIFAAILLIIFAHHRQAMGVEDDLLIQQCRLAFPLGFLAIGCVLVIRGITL
Description: as §1, §2, §3, §4

ELIC R286Q = molecular target: T3, ELIC R286Q (Dickeya chrysanthemi, UniProt P0C7B7, R285Q); test: Native MS POPG binding, mutant; parameters: species or system Erwinia chrysanthemi; details: binomial fit, N varied; 12 μM POPG
T3 construct: MBP (N, cleaved yes); made in house; host or cells: OverExpress C43 (DE3) E. coli
T3 sequence (P0C7B7 whole entry R285Q): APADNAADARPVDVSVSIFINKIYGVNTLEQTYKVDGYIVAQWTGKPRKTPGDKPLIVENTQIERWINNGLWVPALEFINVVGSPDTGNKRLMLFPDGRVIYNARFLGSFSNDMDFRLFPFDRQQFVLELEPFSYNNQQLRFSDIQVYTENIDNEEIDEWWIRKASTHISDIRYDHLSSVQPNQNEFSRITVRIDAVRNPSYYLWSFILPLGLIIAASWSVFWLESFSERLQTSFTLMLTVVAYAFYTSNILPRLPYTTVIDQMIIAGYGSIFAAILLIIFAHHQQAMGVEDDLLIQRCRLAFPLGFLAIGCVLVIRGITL
Description: as §1, §2, §3, §4

ELIC R286Q/R299Q = molecular target: T4, ELIC R286Q/R299Q (Dickeya chrysanthemi, UniProt P0C7B7, R285Q/R298Q); test: Native MS POPG binding, mutant; parameters: species or system Erwinia chrysanthemi; details: binomial fit, N varied; 12 μM POPG
T4 construct: MBP (N, cleaved yes); made in house; host or cells: OverExpress C43 (DE3) E. coli
T4 sequence (P0C7B7 whole entry R285Q/R298Q): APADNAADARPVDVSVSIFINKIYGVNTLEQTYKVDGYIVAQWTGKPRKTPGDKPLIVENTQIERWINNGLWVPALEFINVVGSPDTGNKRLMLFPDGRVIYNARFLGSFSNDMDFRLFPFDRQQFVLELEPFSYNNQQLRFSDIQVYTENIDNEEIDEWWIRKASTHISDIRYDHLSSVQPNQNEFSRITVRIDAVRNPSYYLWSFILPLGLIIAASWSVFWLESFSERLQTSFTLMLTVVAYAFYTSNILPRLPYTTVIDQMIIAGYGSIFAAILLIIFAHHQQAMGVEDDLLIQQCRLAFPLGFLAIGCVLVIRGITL
Description: as §1, §2, §3, §4

ELIC R299Q = molecular target: T5, ELIC R299Q (Dickeya chrysanthemi, UniProt P0C7B7, R298Q); test: Native MS POPG binding, mutant; parameters: species or system Erwinia chrysanthemi; details: binomial fit, N varied; 12 μM POPG
T5 construct: MBP (N, cleaved yes); made in house; host or cells: OverExpress C43 (DE3) E. coli
T5 sequence (P0C7B7 whole entry R298Q): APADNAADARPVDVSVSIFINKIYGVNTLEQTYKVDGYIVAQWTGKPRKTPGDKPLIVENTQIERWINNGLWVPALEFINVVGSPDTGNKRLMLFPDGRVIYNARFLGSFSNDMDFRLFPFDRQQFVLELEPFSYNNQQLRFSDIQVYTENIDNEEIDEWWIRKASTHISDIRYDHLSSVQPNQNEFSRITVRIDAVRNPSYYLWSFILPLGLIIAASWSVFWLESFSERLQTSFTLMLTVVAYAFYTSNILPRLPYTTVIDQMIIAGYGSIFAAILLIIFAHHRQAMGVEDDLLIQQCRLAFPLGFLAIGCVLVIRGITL
Description: as §1, §2, §3, §4

ELIC R301Q/R299Q = molecular target: T6, ELIC R301Q/R299Q (Dickeya chrysanthemi, UniProt P0C7B7, R298Q/R300Q); test: Native MS POPG binding, mutant; parameters: species or system Erwinia chrysanthemi; details: binomial fit, N varied; 12 μM POPG
T6 construct: MBP (N, cleaved yes); made in house; host or cells: OverExpress C43 (DE3) E. coli
T6 sequence (P0C7B7 whole entry R298Q/R300Q): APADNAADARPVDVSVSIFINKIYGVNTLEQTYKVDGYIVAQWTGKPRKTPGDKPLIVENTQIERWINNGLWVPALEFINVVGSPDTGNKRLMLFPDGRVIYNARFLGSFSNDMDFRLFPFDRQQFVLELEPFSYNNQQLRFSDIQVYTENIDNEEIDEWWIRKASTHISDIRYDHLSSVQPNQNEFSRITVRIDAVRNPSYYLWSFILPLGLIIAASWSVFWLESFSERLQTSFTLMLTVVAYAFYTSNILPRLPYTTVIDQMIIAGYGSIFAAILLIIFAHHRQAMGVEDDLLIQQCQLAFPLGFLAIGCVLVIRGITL
Description: as §1, §2, §3, §4

ELIC L238A = molecular target: T7, ELIC L238A (Dickeya chrysanthemi, UniProt P0C7B7, L237A); test: Native MS POPG binding, mutant; parameters: species or system Erwinia chrysanthemi; details: 12 μM POPG
T7 construct: MBP (N, cleaved yes); made in house; host or cells: OverExpress C43 (DE3) E. coli
T7 sequence (P0C7B7 whole entry L237A): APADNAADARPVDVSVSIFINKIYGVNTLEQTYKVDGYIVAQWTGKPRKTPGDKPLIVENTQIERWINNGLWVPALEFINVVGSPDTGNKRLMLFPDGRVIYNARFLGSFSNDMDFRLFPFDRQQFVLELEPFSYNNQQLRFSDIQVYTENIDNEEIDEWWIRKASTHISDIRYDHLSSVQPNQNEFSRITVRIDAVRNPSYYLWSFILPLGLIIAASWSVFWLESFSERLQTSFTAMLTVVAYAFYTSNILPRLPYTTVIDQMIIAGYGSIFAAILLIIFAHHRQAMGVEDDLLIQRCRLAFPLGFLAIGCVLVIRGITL
Description: (§5) Native MS analysis was similar to previous descriptions for other membrane proteins ([Gault et al., 2016]). For analysis of ELIC in DDM, 30 μl of purified protein in 0.02% DDM at ~1 mg/ml was buffer exchanged into 200 mM ammonium acetate pH 7.5% and 0.02% DDM using Biospin six gel filtration spin columns (Bio-Rad, Hercules, CA). 2 μl of buffer exchanged ELIC was loaded into a borosilicate capillary emitter (Thermo Scientific, Waltham, MA), and analyzed by static nanospray on a Thermo QExactive EMR mass spectrometer. […] Lipid stocks were then mixed with 0.4 mg/ml ELIC in a 1:1 vol ratio for a final concentration of 1 μM ELIC, and samples were analyzed after >5 min incubation.
(§6) MS spectra were deconvoluted using UniDec ([Marty et al., 2015]); deconvolution of spectra with bound lipid was restricted to the 26+ to 22+ charge states (Figure 1—figure supplement 3). Peak heights of apo and lipid-bound species were extracted from UniDec, and analyzed by two approaches. The average number of bound lipids was determined by the following relationship:(1) Averagenumberboundlipid=∑n=0kn\cdot In/∑n=0kIn where n is the number of bound lipids and In is the deconvoluted peak height of ELIC with n bound lipids. […]

[2] = test system: ELIC single mutants (R123Q, R286Q, R299Q); test: Native MS POPG binding, single arginine mutants as a group; parameters: species or system Erwinia chrysanthemi; details: 12 μM POPG; not statistically significant
Description: as §5, §6

[3] = test system: ELIC double mutants (arginine mutants in combination with R299Q); test: Native MS POPG binding, double arginine mutants as a group; parameters: species or system Erwinia chrysanthemi
Description: as §1, with “MS measurements on the QExactive EMR were performed with the parameters listed above except: capillary temperature 100°C, CID 75 V and CE 200 V. For lipid binding measurements, stocks of POPG lipid were prepared at 2× the concentration of POPG being tested in 100 mM ammonium acetate pH 7.5% and 0.06% C10E5.” left out
as §6

ELIC WT [4] = test: Thermal stability assay (SEC pentamer peak after heating); type: binding, Erwinia chrysanthemi
Description: Purified WT ELIC in C10E5 (Buffer A, 0.06% C10E5) was diluted to 1 μM in the absence or presence of various concentrations of phospholipid. Samples were analyzed without and with heating in the absence or presence of phospholipid. […] The stabilizing effect of a phospholipid was quantified as the pentamer amplitude in the presence of phospholipid (heated) divided by control (heated).

ELIC WT [5] = test: Excised patch-clamp recordings from giant liposomes; details: 30 mM cysteamine; for Desensitization norm current at 20 s: normalized to peak response

Q: CCCCCCCC/C=C\CCCCCCCC(=O)OC(COC(=O)CCCCCCCCCCCCCCC)COP(=O)(O)OCC(O)CO (centres unmarked) [POPG, 1-palmitoyl-2-oleoyl-phosphatidylglycerol] was tested. Which “Average number of bound phospholipids per pentamer” value (ELIC WT [1]; 12 μM lipid, 1 μM ELIC) did it give?
A: 2.9

Q: What about the “Maximum number of bound POPG per pentamer seen in native MS spectra” value (ELIC WT [1]; 12 μM lipid, 1 μM ELIC) of the same compound?
A: up to nine

Q: And the Kd (ELIC WT [1]; binomial binding model, 32 sites of equal affinity, 1 μM ELIC in C10E5, read-out: Dissociation constant K)?
A: 101 µM

Q: And the “Fold higher affinity than POPC” value (ELIC WT [1]; from binomial fits)?
A: ~2.8 ×

Q: And the “Fold higher affinity than POPE” value (ELIC WT [1]; from binomial fits)?
A: ~ 1.9 ×

Q: And the “N (# sites)” value (ELIC R117Q/R299Q)?
A: 20

Q: What about the “N (# sites)” value (ELIC R123Q/R299Q) of the same compound?
A: 18

Q: What about the “N (# sites)” value (ELIC R286Q) of the same compound?
A: 28

Q: What about the “N (# sites)” value (ELIC R286Q/R299Q) of the same compound?
A: 18

Q: And the “N (# sites)” value (ELIC R299Q)?
A: 27

Q: And the “N (# sites)” value (ELIC R301Q/R299Q)?
A: 21

Q: What about the “Increase in average number of POPG bound compared to WT” value (ELIC L238A) of the same compound?
A: ~ 1.7 x

Q: And the “Decrease in average number of bound POPG compared to WT” value [2]?
A: 13–18%

Q: What about the “Decrease in bound phospholipid with each double mutant” value [3] of the same compound?
A: 35–45%

Q: What about the “Decrease in average number of bound POPG relative to R299Q” value ([3]; 12 μM POPG) of the same compound?
A: 27–32%

Q: What about the “Decrease in average number of bound POPG relative to WT” value ([3]; 12 μM POPG) of the same compound?
A: 38–41%

Q: What about the EC50 (ELIC WT [4]; 1 μM ELIC in C10E5, 32°C for 15 min, read-out: EC50 of thermal stabilizing effect (concentration of POPG for 50% effect)) of the same compound?
A: 52 µM

Q: And the “Fraction of thermal stabilizing effect yielded by 32 bound POPG” value (ELIC WT [4]; extrapolation relating POPG binding to thermal stability)?
A: ~ 82% and > 80%

Q: And the “Desensitization weighted τ” value (ELIC WT [5]; 12 mole% POPG giant liposomes)?
A: 0.93 ± 0.32 s

Q: What about the “Activation τ” value (ELIC WT [5]; 12 mole% POPG) of the same compound?
A: 112 ± 29 ms

Q: What about the “Desensitization norm current at 20 s” value (ELIC WT [5]; 12 mole% POPG) of the same compound?
A: 0.05 ± 0.02

Q: And the “Activation τ” value (ELIC WT [5]; 25 mole% POPG)?
A: 134 ± 50 ms

Q: And the “Desensitization norm current at 20 s” value (ELIC WT [5]; 25 mole% POPG)?
A: 0.10 ± 0.04

Q: What about the “Desensitization weighted τ” value (ELIC WT [5]; 40 mole% POPG giant liposomes) of the same compound?
A: 2.98 ± 0.24 s

Q: What about the “Activation τ” value (ELIC WT [5]; 40 mole% POPG) of the same compound?
A: 133 ± 66 ms

Q: What about the “Desensitization norm current at 20 s” value (ELIC WT [5]; 40 mole% POPG) of the same compound?
A: 0.21 ± 0.03
